A short description of this data set: Human HepG2 cell viability assay in 384 well format. Particulars: HepG2 cells, read-out: Inhibition. More on the design: dose 125 nL, time 70.5 hour; cytotoxicity at 70.5 h: concentration not given beside the values. The data set is classed as toxicity, cell-based.
For the compound `Cc1ccc(F)c(C(=O)NC2CCC(N3C(=O)CCC3=O)CC2)c1` (stereo not given), the cytotoxicity at 70.5 h was -0.936%.
Then `O=C(O)Cc1cccc(-n2ccnc2-c2ccc(F)c(Cl)c2)c1`, with -0.808%.
Next, `CCCc1cc(=O)[nH]c(-n2nc(-c3cccs3)cc2N)n1`: -12.8%; `c1csc(-c2noc(CN3CCCCC3Cn3cccn3)n2)c1` (stereo not given): -1.63%.
Then `COCC(=O)NC1CC2(CCN(CCO)CC2)c2ccccc21` (stereo not given), with 8.06%.
With `Cc1ccc(CNCC2CCCn3ccnc32)s1` (stereo not given), the cytotoxicity at 70.5 h is -4.1%.
Next, `Cc1noc(Cl)c1CC(=O)NCC(C)(O)c1ccc(F)cc1F` (stereo not given): 10.7%; `Cc1cc(C(F)(F)F)nc(N2CCN(Cc3nccn3C)CC2)n1`: 4.75%.
For the compound `c1ccc(OCCNC2CCCN(Cc3noc(C4CC4)n3)C2)cc1` (stereo not given), the cytotoxicity at 70.5 h is -7.17%.
Take `Cn1ccnc1CN1C(=O)CO[C@H]2CN(Cc3ccccc3O)C[C@H]21`: the cytotoxicity at 70.5 h is -1.59%.
Then `COCCC(=O)N1CCCC1c1csc(Nc2ccccn2)n1` (stereo not given), with 21.7%; and `CCOCC(=O)Nc1cc(-c2cccc(F)c2F)n[nH]1`, with -7.88%; and `Cn1cnc(S(=O)(=O)NCCN2CCCCCC2=O)c1Cl`, with 14.4%.
Consider `Cc1ccccc1OCCC(=O)N1CCCC(n2cncn2)C1` (stereo not given), for which the cytotoxicity at 70.5 h is -6.17%.
Next, `Cc1cnn(CC2CCCCN2C(=O)c2ccc3[nH]c(=O)[nH]c3c2)c1` (stereo not given): -0.746%; `CC(=O)NCCNC(=O)C1(Oc2cccnc2C)CCNCC1`: -5.79%.
In the case of `Cc1c[nH]c(CN(C)C(=O)[C@]23CNC[C@H]2CNC3)n1`, the cytotoxicity at 70.5 h was -4.74%.
Then `CC(C)C(=O)N1Cc2ccccc2CC2(CCCN2C)C1` (stereo not given), with -10.9%; and `Cc1cc(C(=O)NCc2cccn2C)nn1C`, with 15.6%.
Next, `Cc1cc(NS(=O)(=O)c2ccc(Cl)s2)ccc1-n1cccc1C(=O)O`: -4.85%; `CC(C)N(C)C(=O)C1=NOC2(CCN(C(=O)c3ccncc3)C2)C1` (stereo not given): -8.56%.
Next, `CC(C)c1nnc2n1CCN(C(=O)c1cccc(OCC(N)=O)c1)C2`: -2.06%; `Cc1ccc(CNC(=O)c2c[nH]nc2NC(=O)COCC2CC2)cc1`: -3.76%.
Regarding `O=C(CCc1ccc2c(c1)OCO2)N1CCCCC1Cn1cccn1` (stereo not given), the cytotoxicity at 70.5 h was -8.55%.
Next, `COc1cc(CNC(=O)NCCCF)cc(Br)c1OC`: -2.35%; `CCN1CC(C(=O)N2CCc3cc(C(N)=O)n(C)c3C2)CCC1=O` (stereo not given): -6.08%.
In the case of `Cc1ccc(N2CCC(N3C[C@@H](CN(C)C)[C@@H](CO)C3)CC2)cc1`, the cytotoxicity at 70.5 h is -6.07%.
Next, `c1cc(CO[C@@H]2CC[C@H]3[C@H]2OCCN3Cc2ccoc2)ccn1`: -14.9%; `CC(C)CNC(=O)c1nc2c(s1)CCN(C(=O)c1cccnc1)CC2`: -4.69%.
Next, `COc1ccc(Cl)cc1CS(=O)(=O)Cc1noc(C)n1`: 12.6%; `CC(C)N1CCCC(C(=O)N2CCN(c3cccc(C(=O)O)c3)CC2)C1` (stereo not given): 23.2%; `CCCOc1cccc(CNC(=O)CN2CCN(C)CC2C)c1` (stereo not given): -13.5%.
Then `Cc1nc(CN(CCS(C)(=O)=O)C(C)C)cs1`, with -8.28%.
For the compound `O=C(c1cc(Br)ccc1-n1cnnn1)N1CCCCC1`, the cytotoxicity at 70.5 h was 6.11%.
In the case of `Cc1ocnc1C(=O)N1CCC(c2nccn2Cc2ccncc2)CC1`, the cytotoxicity at 70.5 h is -6.78%.
Next, `O=C(NCCc1ccccc1)NCC(O)c1cccs1` (stereo not given): -14%.
Next, `Cc1cc(C(=O)N2CCC(N3CCNC3=O)CC2)nn1C(C)(C)C`: -16.5%; `CC(C)NC(=O)N1CCc2c(CNc3ncccn3)cncc2C1`: -3.35%; `O=C(CCn1cnc2ccccc21)N1CCN2CCCCC2C1` (stereo not given): 27.2%.
Next, `Cc1ccsc1CN(C)C(=O)Cn1nc(-c2ccc(F)cc2)oc1=O`: 4.04%; `CC(Cn1ccnc1)NC(=O)N1CCCN(Cc2cccs2)CC1` (stereo not given): -14%; `Cc1ccc(-c2cc(CNC(=O)N3CCSCC3)on2)cc1`: -1.58%.
For the compound `Cc1ccc(CN2Cc3nccn3CC(Cn3cncn3)C2)s1` (stereo not given), the cytotoxicity at 70.5 h was -1.32%.
In the case of `O=C(c1nnn(-c2ccccc2Cl)c1-c1ccccn1)N1CCSCC1`, the cytotoxicity at 70.5 h is -2.09%.
Then `COC(=O)c1ccc2c(-c3ccnc(N[C@@H](C)CO)n3)c[nH]c2c1`, with -2.09%.
Next, `CCOc1ccccc1CCNC(=O)NCC(O)c1cccs1` (stereo not given): -4.36%; `O=C(NCc1ccccc1Cn1cncn1)C1CCCCC1`: -9.09%.
Then `CCN1CCCC(CNC(=O)C2(c3cccc(Cl)c3)CC2)C1` (stereo not given), with -0.608%; and `CC(C)c1ncncc1C(=O)NCCN1CCCCC1C` (stereo not given), with -1.51%.
In the case of `Cc1nn(C2CCS(=O)(=O)C2)c(C)c1CC(=O)NCc1ccccc1Cl` (stereo not given), the cytotoxicity at 70.5 h was -4.52%.
Next, `Cc1nc[nH]c1CN(Cc1ccccc1)C1CC(C)(C)NC(C)(C)C1`: 4.53%; `O=C(NCCNc1ccccn1)N1CCC(O)CC1`: 3.99%; `N#Cc1cccc(OCC(=O)N(Cc2ccsc2)C2CC2)c1`: -12%.
With `CN(C)c1ncccc1CNC(=O)N1CCCC1CN1CCCCC1` (stereo not given), the cytotoxicity at 70.5 h was -32%.
Then `COc1ccc(C(=O)NCC2CCCN(C3CCOCC3)C2)c(O)c1` (stereo not given), with 23.3%.
As to `CCCN1CCC(CC(=O)N[C@H](C(=O)O)c2cccc(F)c2F)CC1`, the cytotoxicity at 70.5 h was -8.2%.
Then `CCN1CCC(CNCc2c[nH]nc2C(C)(C)C)C1` (stereo not given), with -2.99%.
Then `Cc1noc(C)c1CN1CC[C@H]2OCC[C@@]2(C(=O)N2CCCC2)C1`, with -5.9%.
Next, `CCn1nnc2c1C(COCC(=O)N(C)C)CN(Cc1ccco1)C2` (stereo not given): 10.6%; `CC(=O)N1CCc2c(nc(-c3ccncc3)nc2N(C)CC(O)CO)C1` (stereo not given): -9.59%; `Cc1csc(C2(NC(=O)NCCN3CCOCC3)CCCC2)n1`: -7.84%.
For the compound `Cc1ccoc1C(=O)NC1CCN(Cc2csc3c(F)cccc23)CC1`, the cytotoxicity at 70.5 h is 18.8%.
For the compound `CCc1cnc(CNC(=O)NC2CC(C)(C)OC2(C)C)s1` (stereo not given), the cytotoxicity at 70.5 h turned out to be 12.1%.
Next, `COCc1cnc2n1CCN(C(=O)c1ocnc1C)C2C` (stereo not given): 10.1%; `CC(C)(CNC(=O)Nc1cccc(-c2cccs2)c1)C(N)=O`: 0.351%; `CCOCc1cncc2c1CCN(S(=O)(=O)c1ccccc1)C2`: -3.1%.
With `COc1ncc(NCc2cccc(C#N)c2)cc1C(N)=O`, the cytotoxicity at 70.5 h was -1.66%.
Then `COCCCN1CCCC12CCN(Cc1cccnc1OC)CC2`, with 1.58%; and `O=C(Cc1cccs1)N1C[C@@H]2OCCN(CC3CCCC3)[C@@H]2C1`, with -3.16%; and `CC(=O)N1CCC2(CC1)C(=O)N(CC1CC1)c1ccccc12`, with -11.9%.
Next, `CS(=O)(=O)NC[C@]12COC[C@H]1CN(C(=O)c1ccoc1)C2`: -3.34%; `NC(=O)c1ccc2c(c1)nc1n2CCN(Cc2ccco2)C1`: -8.52%.
`Cc1cc(C)n(C2CN(CCc3ccncc3)C2)n1`: the cytotoxicity at 70.5 h was found to be 42.3%.
Then `Cc1ccc(CNCc2cccc(NC(=O)CCN3CCOCC3)c2)s1`, with -5.6%; and `CCN1CC2(CCC1=O)CCN(Cc1cccc(OC(F)F)c1)CC2`, with 20.5%; and `O=C(NCc1cccnc1)N1CCn2c(Cn3cccn3)cnc2C1`, with -0.141%.
Regarding `CC(OCC(F)(F)F)C(=O)NCCN(C)C` (stereo not given), the cytotoxicity at 70.5 h is 20.8%.
Then `O=C(c1cscn1)N1CCC(Cc2cnc3[nH]ccc3c2)C1` (stereo not given), with -1.17%; and `CCN(Cc1cc(F)ccc1Cl)C1CCS(=O)(=O)C1` (stereo not given), with 29.9%; and `CN1CCN(C(=O)c2cccn2C)Cc2cccnc21`, with -4.65%.
Next, `Cc1csc(N2CCN(C(=O)Cc3ccsc3)CC2)n1`: 31.2%; `CCn1cnnc1CNC(=O)N1CCN(c2nccs2)CC1`: -3.76%.
Then `CN(Cc1ccc(F)cc1)[C@@H]1CN(S(C)(=O)=O)C[C@H]1O`, with -4.5%; and `O=C(NCCO)c1coc(CN2CCN(c3ccccc3F)CC2)n1`, with -5.22%; and `COc1ncccc1CNC(=O)c1ccco1`, with 18%.
Regarding `CS(=O)(=O)c1ccc(NC(=O)NC2(c3cccc(F)c3)CC2)cc1`, the cytotoxicity at 70.5 h is -7.54%.
For `CC(C)COCCC(=O)NCc1cn2cc(Br)ccc2n1`, the cytotoxicity at 70.5 h turned out to be 18.2%.
Regarding `CC(=O)N1C[C@H](NC(=O)c2csc(C(C)C)c2)[C@@H](C(C)C)C1`, the cytotoxicity at 70.5 h is 14.4%.
Next, `COCCc1nc(-c2cnn3c(C)cc(C)nc23)no1`: -107%.
In the case of `CC(=O)N1CCCC(c2ccc3sc(N)nc3n2)C1` (stereo not given), the cytotoxicity at 70.5 h is -8.18%.
On to `N#Cc1c(F)cccc1N1CCN(S(=O)(=O)c2cccs2)CC1`, for which the cytotoxicity at 70.5 h came out at 8.47%.
Next, `CCOC(C)c1nccn1CC(=O)Nc1cc(C)on1` (stereo not given): -0.0484%.
Next, `Cc1cc(C#N)ccc1S(=O)(=O)N1CCN(C)Cc2ccccc21`: -0.39%.
Next, `CCCN1CCCn2c(nc(CNC(=O)N3CCCC3)cc2=O)C1`: -9.21%.
Take `Cc1nc(CN2CCCC(NCc3cccc4ccccc34)C2)no1` (stereo not given): the cytotoxicity at 70.5 h was 27.7%.
Regarding `O=C(CNC(=O)C1CCCC1)NCC(O)c1ccc2ccccc2c1` (stereo not given), the cytotoxicity at 70.5 h is -0.471%.
Then `CCn1ccnc1CN1CCCC1Cn1cc(C)cn1` (stereo not given), with 4.18%; and `CNC(=O)[C@H]1C[C@@H]2CN(C(=O)c3ccccn3)C[C@@H]2N1S(C)(=O)=O`, with -7.73%; and `COCCCN(Cc1ccccc1Cl)C1CCS(=O)(=O)C1` (stereo not given), with 25.3%.
Then `Cc1ccc(CNC(=O)N2CCCCC2CCNS(C)(=O)=O)cc1` (stereo not given), with -8.15%.

Values taken from ChEMBL document CHEMBL3507680, “University of Dundee, Gates Library screen for HepG2 cell viability”.
